Results reported in patent EP0430884B1, “Insecticides and antiparasitic agents” (CIBA-GEIGY AG, priority 1989, dated 1991).

System: Haemonchus contortus und Trichostrongylus colubriformis
Experiment: B-3 test on sheep infected with nematodes (worm egg count in faeces)
Type: in vivo, Schafe
Excerpt: Milbemycine mit einer 13β-Alkylthiogruppe sind als Insektizide und Parasitizide aus der Europäischen Offenlegungsschrift EP-0,184,173 bzw. dem korrespondierenden Britischen Patent GB-2,167,751B bekannt. Die biologische Aktivität der 13β-Ethylthiomilbemycine kann man jedoch überraschenderweise durch Einführung der erfindungsgemässen, terminalen [drawing 26] (worin R₃ und X die unter Formel I angegebenen Bedeutungen haben) in die 2-Position der 13β-Ethylgruppe signifikant erhöhen. Vergleicht man z.B. die Verbindung Nr. 1.14 aus obigen Publikationen [drawing 27] mit der erfindungsgemässen Substanz Nr. 1.13 (vgl. Tab. 1) [drawing 28] gemäss dem weiter unten beschriebenen biologischen Beispiel B-3 an Schafen, die mit den Nematoden Haemonchus contortus und Trichostrongylus colubriformis infiziert wurden, so findet man bei einmaliger intraruminaler Applikation von 0,1 mg Aktivsubstanz/kg Körpergewicht folgende Resultate (angegeben in Reduktion der Wurmeier im Kot verglichen mit der Zahl der Eier bei infizierten, aber unbehandelten Schafen):
Der Wirkstoff wird als Suspension formuliert mit einer Magensonde oder durch Injektion in den Pansen eines Schafes gegeben, das mit Haemonchus contortus und Trychostrongylus colubriformis künstlich infiziert worden ist. Pro Dosis werden 1 bis 3 Tiere verwendet. […]

Structure (SMILES): CC[C@H]1O[C@]2(CC[C@@H]1C)C[C@@H]1C[C@@H](C/C=C(\C)[C@H](SCCc3ccc(NC(=O)OC)cc3)[C@@H](C)/C=C/C=C3\CO[C@@H]4[C@H](O)C(C)=C[C@@H](C(=O)O1)[C@]34O)O2 [1.13, 13β-(2-[4-(Methoxycarbonylamino)phenyl]ethylthio)milbemycin A4]
- Reduktion der Wurmeier im Kot verglichen mit der Zahl der Eier bei infizierten, aber unbehandelten Schafen (Versuch 1, single intraruminal application of 0,1 mg Aktivsubstanz/kg Körpergewicht): 99%
- Reduktion der Wurmeier im Kot verglichen mit der Zahl der Eier bei infizierten, aber unbehandelten Schafen (Versuch 2 (Wiederholung von 1), single intraruminal application of 0,1 mg Aktivsubstanz/kg Körpergewicht): 93%
